The source of these data is PubChem BioAssay (NCI).

Holding throughout (test): inhibition of tumour cell growth, NCI panel, 48 h
The subject of experiment [1] is EKVX NSCLC.
The subject of experiment [2] is HCT-15 colon.
In experiment [3] the test system is HOP-62 NSCLC.
Experiment [4] deals with HT29 colon.
Experiment [5] concerns OVCAR-4 ovarian.
The subject of experiment [6] is OVCAR-8 ovarian.
Experiment [7] relates to SK-MEL-28 melanoma.
For experiment [8], the system named is SK-OV-3 ovarian.
The subject of experiment [9] is SR leukemia.
The test system of experiment [10] is UACC-62 melanoma.

Molecules are shown by their SMILES. Where “and” joins values, the source holds several entries; their conditions need not be identical. Identical values can stand only once.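 In this assay, cells in 96-well plates receive the compound at five concentrations for 48 hours. Endpoints are linearly interpolated between the surrounding concentrations. At the GI50, growth is halved. At the TGI there is no net growth.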 A value given as a limit tells only on which side of the number the result lay.

For the molecule `O=C1NC(=O)C(c2ccc(Cl)cc2)=C1Nc1ccc(Cl)c(C(=O)O)c1`, the GI50 in experiment [1], in [2], in experiment [3], in experiment [4], in experiment [5] and in experiment [6] was > 25 µM in each case. Also, the GI50 in experiment [7], in [8], in experiment [9] and in [10] was > 25 µM throughout. Besides, the TGI in experiment [1], in [2], in experiment [3], in experiment [4], in experiment [5] and in experiment [6] was > 25 µM throughout. The TGI in experiment [7], in experiment [8], in experiment [9] and in experiment [10] was > 25 µM in each case.
Take `O=C(Nc1ccc2[nH]c(C(=O)N3CC(CCl)c4c3cc([N+](=O)[O-])c3ccccc43)cc2c1)c1cc2ccccc2o1` (stereo unspecified): the GI50 in experiment [1], in experiment [2], in experiment [3], in [4], in [5] and in experiment [6] was > 1100 µM throughout. Moreover, the GI50 in [7] was > 1100 µM; in experiment [8], > 1100 µM; in experiment [9], 35.2 µM; in experiment [10] it was > 1100 µM. Further, the TGI in experiment [1], in experiment [2], in experiment [3], in [4], in [5] and in [6] was > 1100 µM each time. For the same molecule, the TGI in experiment [7], in experiment [8], in experiment [9] and in [10] was > 1100 µM throughout.
As to `CC(=O)OC(C)(C)/C=C/C(=O)[C@](C)(O)[C@H]1[C@H](O)C[C@@]2(C)[C@@H]3CC=C4[C@@H](C[C@H](O)C(=O)C4(C)C)[C@]3(CO)C(=O)C[C@]12C`, the GI50 is 0.432 µM in experiment [1]; 0.351 µM in experiment [2]; 0.276 µM in experiment [4]; 0.295 µM in experiment [5]; 0.034 µM in experiment [7]; 0.333 µM in [8]. For the same molecule, the values for the GI50 in [9] and in experiment [10] were 0.462 µM and 0.127 µM, respectively. Further, the TGI in experiment [1] was 0.903 µM and 7.31 µM; in [2], > 100 µM; in experiment [3], 0.528 µM and 0.482 µM; in experiment [5] it was 0.835 µM; in experiment [6], 23.8 µM; in [7], 0.697 µM and 0.254 µM. Moreover, the TGI in [9] was found to be 29.4 µM; in [10], 15.8 µM.
As to `CC(=O)OCc1ccc(O)c(C=O)c1`, the TGI in experiment [1], in experiment [2], in experiment [3], in [4], in [5] and in experiment [6] was > 100 µM in each case. Also, the TGI in experiment [7], in experiment [8], in [9] and in [10] was > 100 µM throughout.
Take `CC(=O)OC1CC[C@@]2(C)C(CC[C@]3(C)C2CC=C2[C@@H]4CC(C)(C)CCC4(C)CCC23C)[C@@]1(C)C(=O)O` (stereo partly specified): the TGI in [1] was 39.5 µM; in [2] it was 28.5 µM; in experiment [3], 42 µM; in [4], 38.9 µM; in [5], 40.2 µM; in [6], 36.9 µM. Further, the TGI in experiment [7] is 46.5 µM; in experiment [8], 31.2 µM; in experiment [9] it was > 78.3 µM; in experiment [10], 36.6 µM.
For the molecule `c1cncc(-c2nc3ccccc3s2)c1`, the GI50 in experiment [1] was 41.2 µM; in experiment [2], > 100 µM; in experiment [3], > 100 µM; in experiment [4] it was > 100 µM; in experiment [5], > 100 µM; in experiment [6], > 100 µM. Also, the GI50 in experiment [7], in experiment [8], in experiment [9] and in experiment [10] was > 100 µM throughout. In addition, the TGI in [1], in [2], in experiment [3], in experiment [4], in experiment [5] and in experiment [6] was > 100 µM each time. The TGI in experiment [7], in [8], in experiment [9] and in [10] was > 100 µM each time.
Turning to `CSc1n(Cc2ccc3ccccc3c2)c(C)c[n+]1Cc1ccc2ccccc2c1`, the GI50 was 1.4 µM in [1]; 2.12 µM in experiment [2]; 1.39 µM in [3]; 0.431 µM in [4]; 0.289 µM in experiment [5]; 0.417 µM in experiment [6]. In addition, the GI50 in experiment [7] is 0.854 µM; in [8], 1.18 µM; in experiment [9], 0.363 µM; in experiment [10], 0.519 µM. For the same molecule, the TGI is 3.83 µM in experiment [1]; 4.75 µM in [2]; 3.01 µM in experiment [3]; 1.6 µM in [4]; 1.04 µM in experiment [5]; 1.6 µM in experiment [6]. The TGI was 2.19 µM in experiment [7], 2.61 µM in experiment [8], 2.52 µM in [9] and 1.82 µM in [10].
On to `Nc1nc(NC2C=C(CO)C(O)C2O)c([N+](=O)[O-])c(=O)[nH]1` (stereo unspecified), for which the TGI in experiment [1], in experiment [2], in experiment [3], in [4], in [5] and in experiment [6] was > 100 µM throughout. For the same molecule, the TGI in [7], in experiment [8], in experiment [9] and in [10] was > 100 µM in each case.
